Measured values reported in publication PMC9823097, “Dysregulation of PRMT5 in chronic lymphocytic leukemia promotes progression with high risk of Richter’s transformation” (Nature Communications, 2023).

Experiments:
Mec-1 cells = experiment: Cell growth curves over 12 days, Mec-1; type: cell-based; details: for anti-proliferative potency compared to PRT382: Mec-1
Method: (§1) Live cells/mL were counted on days 3, 6, 10, and 12. […] The split factor was calculated at indicated time points by dividing the counted cells/mL by 3E5. Cell growth was extrapolated over time by multiplying the subsequent cell count by the previous split factor. Cell growth is plotted as fold change relative to DMSO-treated cells.

HG3 cells = experiment: Cell growth curves over 12 days, HG3; type: cell-based; details: for anti-proliferative potency compared to PRT382: HG3
Method: as §1

Which results are given for `Nc1nc2cc(CC[C@H]3C[C@@H](n4ccc5c(N)ncnc54)[C@H](O)[C@@H]3O)ccc2cc1Br` [JNJ-64619178]?
Rep 1 Live Cells [Fold Change] (Mec-1 cells; Mec-1, 1 nM, day 0): 1 Fold Change; Rep 2 Live Cells [Fold Change] (Mec-1 cells; Mec-1, 1 nM, day 0): 1 Fold Change; Rep 1 Live Cells [Fold Change] (Mec-1 cells; Mec-1, 1 nM, day 3): 6.73 Fold Change; Rep 2 Live Cells [Fold Change] (Mec-1 cells; Mec-1, 1 nM, day 3): 5.77 Fold Change; Rep 1 Live Cells [Fold Change] (Mec-1 cells; Mec-1, 1 nM, day 6): 33.4 Fold Change; Rep 2 Live Cells [Fold Change] (Mec-1 cells; Mec-1, 1 nM, day 6): 34.4 Fold Change; Rep 1 Live Cells [Fold Change] (Mec-1 cells; Mec-1, 1 nM, day 10): 194 Fold Change; Rep 2 Live Cells [Fold Change] (Mec-1 cells; Mec-1, 1 nM, day 10): 282 Fold Change; Rep 1 Live Cells [Fold Change] (Mec-1 cells; Mec-1, 1 nM, day 12): 737 Fold Change; Rep 2 Live Cells [Fold Change] (Mec-1 cells; Mec-1, 1 nM, day 12): 940 Fold Change; Rep 1 Live Cells [Fold Change] (Mec-1 cells; Mec-1, 10 nM, day 0): 1 Fold Change; Rep 2 Live Cells [Fold Change] (Mec-1 cells; Mec-1, 10 nM, day 0): 1 Fold Change; Rep 1 Live Cells [Fold Change] (Mec-1 cells; Mec-1, 10 nM, day 3): 4.7 Fold Change; Rep 2 Live Cells [Fold Change] (Mec-1 cells; Mec-1, 10 nM, day 3): 4.73 Fold Change; Rep 1 Live Cells [Fold Change] (Mec-1 cells; Mec-1, 10 nM, day 6): 4.72 Fold Change; Rep 2 Live Cells [Fold Change] (Mec-1 cells; Mec-1, 10 nM, day 6): 5.92 Fold Change; Rep 1 Live Cells [Fold Change] (Mec-1 cells; Mec-1, 10 nM, day 10): 4.93 Fold Change; Rep 2 Live Cells [Fold Change] (Mec-1 cells; Mec-1, 10 nM, day 10): 4.62 Fold Change; Rep 1 Live Cells [Fold Change] (Mec-1 cells; Mec-1, 10 nM, day 12): 3.86 Fold Change; Rep 2 Live Cells [Fold Change] (Mec-1 cells; Mec-1, 10 nM, day 12): 2.38 Fold Change; Rep 1 Live Cells [Fold Change] (Mec-1 cells; Mec-1, 100 nM, day 0): 1 Fold Change; Rep 2 Live Cells [Fold Change] (Mec-1 cells; Mec-1, 100 nM, day 0): 1 Fold Change; Rep 1 Live Cells [Fold Change] (Mec-1 cells; Mec-1, 100 nM, day 3): 4.17 Fold Change; Rep 2 Live Cells [Fold Change] (Mec-1 cells; Mec-1, 100 nM, day 3): 4.67 Fold Change; Rep 1 Live Cells [Fold Change] (Mec-1 cells; Mec-1, 100 nM, day 6): 3.53 Fold Change; Rep 2 Live Cells [Fold Change] (Mec-1 cells; Mec-1, 100 nM, day 6): 4.53 Fold Change; Rep 1 Live Cells [Fold Change] (Mec-1 cells; Mec-1, 100 nM, day 10): 2.56 Fold Change; Rep 2 Live Cells [Fold Change] (Mec-1 cells; Mec-1, 100 nM, day 10): 2.9 Fold Change; Rep 1 Live Cells [Fold Change] (Mec-1 cells; Mec-1, 100 nM, day 12): 1.15 Fold Change; Rep 2 Live Cells [Fold Change] (Mec-1 cells; Mec-1, 100 nM, day 12): 1.27 Fold Change; Rep 1 Live Cells [Fold Change] (Mec-1 cells; Mec-1, 1 µM, day 0): 1 Fold Change; Rep 2 Live Cells [Fold Change] (Mec-1 cells; Mec-1, 1 µM, day 0): 1 Fold Change; Rep 1 Live Cells [Fold Change] (Mec-1 cells; Mec-1, 1 µM, day 3): 1.48 Fold Change; Rep 2 Live Cells [Fold Change] (Mec-1 cells; Mec-1, 1 µM, day 3): 1.38 Fold Change; Rep 1 Live Cells [Fold Change] (Mec-1 cells; Mec-1, 1 µM, day 6): 0.841 Fold Change; Rep 2 Live Cells [Fold Change] (Mec-1 cells; Mec-1, 1 µM, day 6): 2.27 Fold Change; Rep 1 Live Cells [Fold Change] (Mec-1 cells; Mec-1, 1 µM, day 10): 1.28 Fold Change; Rep 2 Live Cells [Fold Change] (Mec-1 cells; Mec-1, 1 µM, day 10): 1.57 Fold Change; Rep 1 Live Cells [Fold Change] (Mec-1 cells; Mec-1, 1 µM, day 12): 0.808 Fold Change; Rep 2 Live Cells [Fold Change] (Mec-1 cells; Mec-1, 1 µM, day 12): 0.765 Fold Change; anti-proliferative potency compared to PRT382 (Mec-1 cells; high doses (1µM)): similar; anti-proliferative potency compared to PRT382 (Mec-1 cells; lower doses (10nM, 100nM)): more potent; Rep 1 Live Cells [Fold Change] (HG3 cells; HG3, 1 nM, day 0): 1 Fold Change; Rep 2 Live Cells [Fold Change] (HG3 cells; HG3, 1 nM, day 0): 1 Fold Change; Rep 1 Live Cells [Fold Change] (HG3 cells; HG3, 1 nM, day 3): 6.233 Fold Change; Rep 2 Live Cells [Fold Change] (HG3 cells; HG3, 1 nM, day 3): 6.733 Fold Change; Rep 1 Live Cells [Fold Change] (HG3 cells; HG3, 1 nM, day 6): 33.0367 Fold Change; Rep 2 Live Cells [Fold Change] (HG3 cells; HG3, 1 nM, day 6): 39.5022 Fold Change; Rep 1 Live Cells [Fold Change] (HG3 cells; HG3, 1 nM, day 10): 290.723 Fold Change; Rep 2 Live Cells [Fold Change] (HG3 cells; HG3, 1 nM, day 10): 314.043 Fold Change; Rep 1 Live Cells [Fold Change] (HG3 cells; HG3, 1 nM, day 12): 802.395 Fold Change; Rep 2 Live Cells [Fold Change] (HG3 cells; HG3, 1 nM, day 12): 1088.68 Fold Change; Rep 1 Live Cells [Fold Change] (HG3 cells; HG3, 10 nM, day 0): 1 Fold Change; Rep 2 Live Cells [Fold Change] (HG3 cells; HG3, 10 nM, day 0): 1 Fold Change; Rep 1 Live Cells [Fold Change] (HG3 cells; HG3, 10 nM, day 3): 4.733 Fold Change; Rep 2 Live Cells [Fold Change] (HG3 cells; HG3, 10 nM, day 3): 5.9 Fold Change; Rep 1 Live Cells [Fold Change] (HG3 cells; HG3, 10 nM, day 6): 4.86 Fold Change; Rep 2 Live Cells [Fold Change] (HG3 cells; HG3, 10 nM, day 6): 7.375 Fold Change; Rep 1 Live Cells [Fold Change] (HG3 cells; HG3, 10 nM, day 10): 4.276 Fold Change; Rep 2 Live Cells [Fold Change] (HG3 cells; HG3, 10 nM, day 10): 8.039 Fold Change; Rep 1 Live Cells [Fold Change] (HG3 cells; HG3, 10 nM, day 12): 4.945 Fold Change; Rep 2 Live Cells [Fold Change] (HG3 cells; HG3, 10 nM, day 12): 8.633 Fold Change; Rep 1 Live Cells [Fold Change] (HG3 cells; HG3, 100 nM, day 0): 1 Fold Change; Rep 2 Live Cells [Fold Change] (HG3 cells; HG3, 100 nM, day 0): 1 Fold Change; Rep 1 Live Cells [Fold Change] (HG3 cells; HG3, 100 nM, day 3): 4.133 Fold Change; Rep 2 Live Cells [Fold Change] (HG3 cells; HG3, 100 nM, day 3): 5.6 Fold Change; Rep 1 Live Cells [Fold Change] (HG3 cells; HG3, 100 nM, day 6): 4.064 Fold Change; Rep 2 Live Cells [Fold Change] (HG3 cells; HG3, 100 nM, day 6): 5.619 Fold Change; Rep 1 Live Cells [Fold Change] (HG3 cells; HG3, 100 nM, day 10): 2.5 Fold Change; Rep 2 Live Cells [Fold Change] (HG3 cells; HG3, 100 nM, day 10): 4.6354 Fold Change; Rep 1 Live Cells [Fold Change] (HG3 cells; HG3, 100 nM, day 12): 1.958 Fold Change; Rep 2 Live Cells [Fold Change] (HG3 cells; HG3, 100 nM, day 12): 5.387 Fold Change; Rep 1 Live Cells [Fold Change] (HG3 cells; HG3, 1 µM, day 0): 1 Fold Change; Rep 2 Live Cells [Fold Change] (HG3 cells; HG3, 1 µM, day 0): 1 Fold Change; Rep 1 Live Cells [Fold Change] (HG3 cells; HG3, 1 µM, day 3): 1.6 Fold Change; Rep 2 Live Cells [Fold Change] (HG3 cells; HG3, 1 µM, day 3): 2.303 Fold Change; Rep 1 Live Cells [Fold Change] (HG3 cells; HG3, 1 µM, day 6): 1.024 Fold Change; Rep 2 Live Cells [Fold Change] (HG3 cells; HG3, 1 µM, day 6): 1.536 Fold Change; Rep 1 Live Cells [Fold Change] (HG3 cells; HG3, 1 µM, day 10): 3.369 Fold Change; Rep 2 Live Cells [Fold Change] (HG3 cells; HG3, 1 µM, day 10): 0.4381 Fold Change; Rep 1 Live Cells [Fold Change] (HG3 cells; HG3, 1 µM, day 12): 2.347 Fold Change; Rep 2 Live Cells [Fold Change] (HG3 cells; HG3, 1 µM, day 12): 3.411 Fold Change; anti-proliferative potency compared to PRT382 (HG3 cells; high doses (1µM)): similar; anti-proliferative potency compared to PRT382 (HG3 cells; lower doses (10nM, 100nM)): more potent
